Data on three molecules can be found in patent US20060216346A1, “Dosage form containing (s)-pantoprazole as active ingredient” (priority 2003, published 2006).

SMILES strings stand for the structures. Like-named read-outs stand apart in the source and are kept apart here.

Data set [1] is described as follows: Stability of the salt at 70° C. for one week. The class given is physicochemical. The note with it: for discolouration and decomposition: identical conditions. An excerpt:
Pantoprazole is the INN (International Nonproprietary Name) for the compound 5-difluoromethoxy-2-[(3,4-dimethoxy-2-pyridinyl)methylsulfinyl]-1H-benzimidazole. The magnesium salt of pantoprazole is the chemical compound magnesium bis[5-[difluoromethoxy]-2-[[3,4-dimethoxy-2-pyridinyl]methyl]sulfinyl]-1H-benzimidazolide]. The magnesium salt of (S)-pantoprazole [hereinafter also referred to as (−)-pantoprazole] and its hydrates in connection with the invention refers to the compound magnesium (−)-bis{[5-(difluoromethoxy)]-2-[(3,4-dimethoxy-2-pyridinyl)methylsulphinyl]-1H-benzimidazolide} including hydrates thereof. Here, particular emphasis is given to hydrates, which, after drying under reduced pressure at 50° C., have a water content of from 4.0 to 6.7% (by weight), in particular from 4.0 to 5.5%. Particular preference is given to the hydrate form which has a water content of from 4.0 to 5.0%, in particular from 4.2 to 4.4%, which corresponds to a dihydrate. The magnesium salt and its hydrates have highly surprising stability properties, making it a particularly suitable candidate for use in solid or oral dosage forms.
(§1) This absorption of water is reversible, so that it is difficult to adjust an exact water content.

The next data set is described as follows: Dissolution rate. The data set is classed as physicochemical. Conditions: compared to the racemic pantoprazole magnesium dihydrate.
Excerpt: as §1

The next data set can be described thus: Wettability. The data set is classed as physicochemical. Conditions: compared to the racemic pantoprazole magnesium dihydrate.
Excerpt: as §1

A further data set is described as follows: Solubility at pH 7.4. The data set is classed as physicochemical. The note with it: at pH 7.4, compared to the racemic pantoprazole magnesium dihydrate.
Excerpt: as §1

Data set [2] can be described thus: Hygroscopicity / absorption of water. The data set is classed as physicochemical. The procedure: as §1
Drying is carried out in a vacuum drying cabinet at <50 mbar and 40-45° C. [It is also possible to dispense with drying and to use the moist product (having an MIBK content of 10-20%) directly for step B]. The white-beige crystalline product obtained after drying is hygroscopic. The water content is from 2 to 12%. The absorption and release of water are reversible. Yield: 34 g=90% of theory (based on anhydrous product). Specific rotation: aD^20+=−95 (c=0.5, measured in methanol, sodium salt having a water content of 12%). m.p.: 145-165° C. (decomposition, sodium salt having a water content of 2%); 102-109° C. (decomposition, sodium salt having a water content of 12%).

For data set [3] the following is noted: in comparison to pantoprazole itself or to pantoprazole sodium sesquihydrate; WO00/10995; cited from earlier work.

For `COc1ccnc(C[S+]([O-])c2nc3cc(OC(F)F)ccc3[n-]2)c1OC.COc1ccnc(C[S+]([O-])c2nc3cc(OC(F)F)ccc3[n-]2)c1OC.O.O.[Mg+2]` (single isomer, unassigned; (-)) [(−)-pantoprazole magnesium dihydrate, Magnesium (−)-bis{[5-(difluoromethoxy)]-2-[(3,4-dimethoxy-2-pyridinyl)methylsulphinyl]-1H-benzimidazolide}dihydrate], in data set [1] (at 70° C., one week), the stability entry is on record as “completely stable”; the discolouration and decomposition entry is reported as “virtually no discolouration or decomposition”. In addition, the stability properties entry in data set [1] (compared to the sodium salt of (−)-pantoprazole) is given as “considerably improved stability properties”. The dissolution rate entry in the data set “Dissolution rate” was “considerably higher”. For the same molecule, the wettability result in “Wettability” was “better”. Besides, in the data set “Solubility at pH 7.4”, the solubility result is “better”. For the same molecule, in data set [2], the hygroscopicity result is listed as “non-hygroscopic”.
As to `COc1ccnc(C[S+]([O-])c2nc3cc(OC(F)F)ccc3[n-]2)c1OC.[Na+]` (single isomer, unassigned; (-)) [(−)-pantoprazole sodium], the discolouration and decomposition entry in data set [1] (at 70° C., one week) is on record as “changes to brown, with formation of considerable amounts of decomposition products”. For the same molecule, the hygroscopicity entry was “absorbs water depending on drying conditions and atmospheric humidity” in data set [2]; “hygroscopic” in data set [2] (listed as (−)-Pantoprazole-Na).
As to `COc1ccnc(C[S+]([O-])c2nc3cc(OC(F)F)ccc3[n-]2)c1OC.COc1ccnc(C[S+]([O-])c2nc3cc(OC(F)F)ccc3[n-]2)c1OC.[Mg+2]` (centres unmarked) [magnesium bis[5-[difluoromethoxy]-2-[[3,4-dimethoxy-2-pyridinyl]methyl]sulfinyl]-1H-benzimidazolide]], in data set [3], the stability properties entry was “improved stability properties”.
